Drawing on patent publication US20120189579A1 (priority 2009, published 2012), this text covers EC50, melting point and inhibition for five molecules.

For data set [1], the system named is HCV replicon Luc Neo ET in Huh-7 cells. Put plainly: Replicon assay (Luc Neo ET replicon). Format: cell-based. Particulars: Hepatitis C virus, 72 hours with compound, firefly luciferase reporter, read-out: EC50—Replicon LucneoET. As to the method:
(§1) Human Hepatoma Huh-7 cell line was maintained in DMEM/HAMF-12 supplemented with 10% SVF, 4 mM glutamine, […] Na pyruvate, 1% penistreptomycine. HCV replicon containing Huh-7 cell lines Huh-9.13 and Luc Neo ET (Reblikon) were maintained in DMEM supplemented with 10% SVF, 2 mM glutamine, and 1×NEAA, 100 U/ml penicillin, and 100 μg/ml streptomycine. Replicon cells were maintained in medium supplemented with 1 mg/ml G418 for replicon Huh-9.13 and 0.5 mg/ml for Luc Neo et replicon unless indicated otherwise. Huh-7 and HCV replicon cell lines were maintained at 37° C. and 5% CO2 in a humidified atmosphere. Cells were dissociated at sub confluence with trypsin EDTA 1×.
Replicon Luc Neo ET is a bicistronic expression constructs (Lohmann et al, 1999, Science 285, 110-113). In brief, the structural genes of the HCV genome were replaced by heterologous sequences; the gene encoding the neomycin phosphotransferase (NPT) and the internal ribosome entry site (IRES) of the encephalomyocarditis virus (EMCV). The bicistronic construct is therefore composed of the following elements: HCV-IRES nucleotides 1-389, the NPT gene, the EMCV-IRES directing translation of downstream HCV sequences from NS2 or NS3 up to the authentic 3′ end of the genome. HCV Polyprotein harbours the cell culture adaptive mutations E1202G, T1280I, K1846T. G418-resistance is only possible with cells containing high amounts of replicon.
Cells were dissociated the day before addition of compounds and seeded in 96 well-plates at a final concentration of 77 777.77 cells·ml^−1·well^−2 in 90 μl final volume of culture medium per well and were maintained at 37° C. and 5% CO2 in a humidified atmosphere for 24 hours. 10 μl of compounds to be tested were added 24 hours after seeding. Final concentration of DMSO was 1%. Cells were incubated in the presence of compounds for 72 hours after which expression of firefly luciferase reporter gene was quantified. Briefly, culture medium was removed and cells were lysed by addition of 100 μl of lysis buffer containing 125 mM Tris Phosphate ph 7.8, 10 mM EDTA, 5 mM DTT, 50% glycerol and 5% Triton. Plates were vortexed 10 min at 1300 rpm. Cell lysat was transferred in OpaqueWhite Assay 96 well Flat Bottom plates. 100 μl of luciferin solution 1× were added to each well. Luciferin solution contained 40 mM Tris Phosphate ph 7.8, 0.2 mM EDTA, 67 mM DTT, 2.14 mM MgCl2, 5.4 mM MgSO4, 4.7×10^−4 M luciferin, 5.3×10^−4 M ATP and 2.7×10^−4 M Acetyl co enzyme A. Luminescence was immediately measured with Berthold Microlumat Plus LB 96V luminometer with an integration of 0.5 sec Inhibition was calculated using the formula:
% inhibition=1−[(RLUsample−RLUbackground)/(RLUsignal−RLUbackground)]
(A replicon is a self-replicating genome or part of one, used to study replication in cells.)

Data set [2] addresses T1, HCV NS5BΔ21/Gal4-DBD fusion protein (Hepatitis C virus genotype 1b, UniProt Q9WMX2).
T1 construct: The protein was expressed with a 21 amino acid C-terminal deletion to remove transmembrane domain; expressed in transfected cells; host or cells: Huh-7 (transient transfection)
As to the kind of experiment: 3D-SCREEN assay (NS5B reporter gene assay in Huh-7 cells). Format: cell-based, HCV genotype 1b. As to the method:
as §1
cDNA encoding HCV NS5B genotype 1b, was cloned in frame with Gal4-DNA Binding Domain. The protein was expressed with a 21 amino acid C-terminal deletion to remove transmembrane domain. Expression of NS5BΔ21/Gal4 DBD fusion protein was under control of SV40 early promoter. 3D-Sensor peptide was cloned in frame with VP16 activation domain. Expression of 3D-Sensor/VP16 AD fusion protein was under control of CMV promoter. Expression of the firefly luciferase reporter gene was inducible by the [Target protein/conformation sensitive peptide/VP16AD] complex.
It is a single-target, cell based assay. Briefly, expression of a reporter gene depends on the interaction of a short peptide, thereafter named 3D-Sensor, and native conformation of the target protein. Whenever the conformation of the target protein is modified, interaction between 3D-sensor and target protein is disrupted and reporter gene is not expressed anymore. Conformation modifiers are identified by loss of expression of reporter gene. NS5B 3D-Screen platform was generated in Huh-7 cell lines by transient transfection of three expression vectors encoding respectively • (i) HCV NS5BΔ21/Gal4-DBD fusion protein • (ii) the 3D-sensor peptide 14/VP16 fusion protein • (iii) the firefly luciferase reporter gene
Huh-7 cells were dissociated the day before transfection and seeded in T175 flasks at a density of 10^7 cells in 30 ml culture medium. Equimolar ratios of vectors were transfected in cell according to optimized jetPEI transfection protocol (PolyPlus Transfection, Illkirch, France) and 10 μg total DNA/10^6 cells. Transfection was performed for 2 hours at 37° C. and 5% CO2 in a humidified atmosphere. After two hours cells were dissociated and seeded in 96 wells plates at a density of 25,000 cells per well and 90 μl culture medium. 10 μl of compounds to be tested were added 2 hours after seeding. Final concentration of DMSO was 1%. Cells were incubated in the presence of compounds for 24 hours after which expression of firefly luciferase reporter gene was quantified. Briefly, culture medium was removed and cells were lysed by addition of 100 μl of lysis buffer containing 125 mM Tris Phosphate ph 7.8, 10 mM EDTA, 5 mM DTT, 50% glycerol and 5% Triton. Plates were vortexed 10 min at 1300 rpm. Cell lysat was transferred in OpaqueWhite Assay 96 well Flat Bottom plates. 100 μl of luciferin solution 1× were added to each well. Luciferin solution contained 40 mM Tris Phosphate ph 7.8, 0.2 mM EDTA, 67 mM DTT, 2.14 mM MgCl2, 5.4 mM MgSO4, 4.7×10^−4 M luciferin, 5.3×10^−4 M ATP and 2.7×10^−4 M Acetyl co enzyme A. Luminescence was immediately measured with Berthold Microlumat Plus LB 96V luminometer with an integration of 0.5 sec. Inhibition was calculated using the formula: % inhibition=(1−(read/average max))*100. Average max=signal in absence of compound

Data set [3] concerns the target T2, purified HCV NS5B with a deletion of the 21 C-terminal amino acids (Hepatitis C virus genotype 1b, UniProt Q9WMX2).
T2 construct: purified HCV NS5B with a deletion of the 21 C-terminal amino acids
As to the kind of experiment: HCV NS5B RdRp enzyme assay. The note with it: read-out: inhibition (RdRp enzyme assay). Type of data set: biochemical. As to the method:
The assay was performed in a total volume of 20 μl containing 20 mM Tris pH 7.5, 1 mM DTT, 17 U RNasin, 50 mM NaCl, 10% DMSO, 5 mM MgCl2, 0.5 mM each of the 3 NTPs (ATP, CTP, GTP), 86 nM RNA template (341 nt from the 3′ end of HCV minus strand RNA), 50 nM of purified HCV NS5B with a deletion of the 21 C-terminal amino acids and 2 μCi [^3H]UTP (46 Ci·mmol^−1). The reaction mixture was incubated for 2 h at 25-30° C. and the radio labeled products were precipitated by the addition of 10% TCA. The radioactivity incorporated was quantified by counting in a Wallac scintillation counter. Increasing concentrations of tested compounds were added to the complete RdRp reaction mixture. After a two hour incubation period at 25-30° C., the amount of labeled product was determined as above. Two types of control reactions were done: a negative control corresponding to the complete mixture without enzyme and a positive control with enzyme but without compounds. In each experiment, test and control samples are in duplicate.
The level of activity with each compound concentration was expressed with the formulae: […]
The IC50 value was calculated as the compound concentration reducing polymerase activity by 50%.

Usually EC50 stands for the concentration needed to bring the measured effect to its halfway point. A word on the melting point: it is the temperature, or range, at which the solid turns liquid. A word on the inhibition: it is the change of the read-out against control, counted positive when it falls.

Structures are written as SMILES.

In the case of `Cc1nnc(N2C(=O)C(O)=C(C(=O)c3ccc(C(C)C)cc3)C2c2ccc(OC(F)(F)F)cc2)s1` (stereo not drawn) [Example 127, 3-hydroxy-4-(4-isopropyl-benzoyl)-1-(5-methyl-[1,3,4]thiadiazol-2-yl)-5-(4-trifluoromethoxy-phenyl)-1,5-dihydro-pyrrol-2-one], the melting point was 260 °C. For the same molecule, the EC50 in data set [1] was below 1 µM. The molecule further gave an EC50 in data set [2] below 1 µM.

For the molecule `CC(C)c1ccc(C(=O)C2=C(O)C(=O)N(c3ncc(S(=O)(=O)c4ccc([N+](=O)[O-])cc4)s3)C2c2ccc(OC(F)(F)F)cc2)cc1` (stereo not drawn) [Example 125, 3-hydroxy-4-(4-isopropyl-benzoyl)-1-[5-(4-nitro-benzenesulfonyl)-thiazol-2-yl]-5-(4-trifluoromethoxy-phenyl)-1,5-dihydro-pyrrol-2-one], the melting point was 276 to 278 °C. The EC50 in data set [1] was below 10 µM. In addition, the EC50 in data set [2] is below 10 µM.

For `Cc1ccc(C(=O)C2=C(O)C(=O)N(c3ncc(S(=O)(=O)c4ccc([N+](=O)[O-])cc4)s3)C2c2ccc(C(C)(C)C)cc2)cc1` (stereo not drawn) [Example 28], the values for the 50% effective concentration (EC50) in data set [1] and in data set [2] were 4 µM and 2 µM, respectively. The inhibition at 10 µM in data set [3] was 85%.

For `Cc1nnc(N2C(=O)C(O)=C(C(=O)c3ccc(C(C)C)cc3)C2c2ccc(C(F)(F)F)cc2)s1` (stereo not drawn) [Example 128, 3-hydroxy-4-(4-isopropyl-benzoyl)-1-(5-methyl-[1,3,4]thiadiazol-2-yl)-5-(4-trifluoromethyl-phenyl)-1,5-dihydro-pyrrol-2-one], the melting point worked out at 257 °C. In addition, the EC50 in data set [1] was below 1 µM. The molecule also displayed an EC50 in data set [2] below 1 µM.

`Cc1cnc(N2C(=O)C(O)=C(C(=O)c3ccc(C(C)C)cc3)C2c2ccc(OC(F)(F)F)cc2)s1` (stereo not drawn) [Example 130, 3-hydroxy-4-(4-isopropyl-benzoyl)-1-(5-methyl-thiazol-2-yl)-5-(4-trifluoromethoxy-phenyl)-1,5-dihydro-pyrrol-2-one] yielded a melting point of 243 to 244 °C. Besides, the EC50 in data set [1] was below 10 µM. In addition, the EC50 in data set [2] was below 10 µM.
